The values below come from ChEMBL document CHEMBL1909588, “Synthesis and in vitro antitubercular evaluation of novel sansanmycin derivatives” (2011).

In general, MIC refers to the least concentration at which growth counts as inhibited. Low values mean inhibition by little substance, high ones a need for much substance.

Values after ≈ are worked out from the molar mass of the structure shown.

The test system of the assay is Mycobacterium tuberculosis. Description: Antitubercular activity against Mycobacterium tuberculosis H37Rv […] by microplate alamar blue assay. Format: functional. Background: Alamar Blue is a resazurin reagent that responds to reducing activity.
With `CO[C@H]1/C=C/O[C@@]2(C)Oc3c(C)c(O)c4c(O)c(c(/C=N/N5CCN(C)CC5)c(O)c4c3C2=O)NC(=O)/C(C)=C\C=C\[C@H](C)[C@H](O)[C@@H](C)[C@@H](O)[C@@H](C)[C@H](OC(C)=O)[C@@H]1C` [RIFAMPIN], the lowest concentration to inhibit growth (MIC) was 0.12 µg/mL (≈ 0.146 µM).

As to `CSCCC(NC(=O)NC(Cc1c[nH]c2ccccc12)C(=O)O)C(=O)NC(C(=O)N/C=C1\C[C@@H](O)[C@H](n2ccc(=O)[nH]c2=O)O1)C(C)N(C)C(=O)C(Cc1cccc(O)c1)NC(=O)CCl` (stereo not given in full), the MIC was above 16 µg/mL.

As to `CCNC(Cc1cccc(O)c1)C(=O)N(C)C(C)C(NC(=O)C(CCSC)NC(=O)NC(Cc1c[nH]c2ccccc12)C(=O)O)C(=O)N/C=C1\C[C@@H](O)[C@H](n2ccc(=O)[nH]c2=O)O1` (stereo not given in full), the MIC is above 16 µg/mL.

In the case of `COC(=O)NC(Cc1cccc(O)c1)C(=O)N(C)C(C)C(NC(=O)C(CCSC)NC(=O)NC(Cc1c[nH]c2ccccc12)C(=O)O)C(=O)N/C=C1\C[C@@H](O)[C@H](n2ccc(=O)[nH]c2=O)O1` (stereo not given in full), the minimum inhibitory concentration (MIC) was above 16 µg/mL.

`COc1ccc(S(=O)(=O)NC(Cc2cccc(O)c2)C(=O)N(C)C(C)C(NC(=O)C(CCSC)NC(=O)NC(Cc2c[nH]c3ccccc23)C(=O)O)C(=O)N/C=C2\C[C@@H](O)[C@H](n3ccc(=O)[nH]c3=O)O2)cc1` (stereo not given in full) had an MIC above 16 µg/mL.

`CSCCC(NC(=O)NC(Cc1c[nH]c2ccccc12)C(=O)O)C(=O)NC(C(=O)N/C=C1\C[C@@H](O)[C@H](n2ccc(=O)[nH]c2=O)O1)C(C)N(C)C(=O)C(Cc1cccc(OC(C)=O)c1)NC(C)=O` (stereo not given in full) showed an MIC above 16 µg/mL.

`CCCCNC(Cc1cccc(O)c1)C(=O)N(C)C(C)C(NC(=O)C(CCSC)NC(=O)NC(Cc1c[nH]c2ccccc12)C(=O)O)C(=O)N/C=C1\C[C@@H](O)[C@H](n2ccc(=O)[nH]c2=O)O1` (stereo not given in full) registered a minimum inhibitory concentration (MIC) above 16 µg/mL.

`CSCCC(NC(=O)NC(Cc1c[nH]c2ccccc12)C(=O)O)C(=O)NC(C(=O)N/C=C1\C[C@@H](O)[C@H](n2ccc(=O)[nH]c2=O)O1)C(C)N(C)C(=O)C(N)Cc1cccc(O)c1` (stereo not given in full) [SANSANMYCIN A] registered an MIC of 16 µg/mL (≈ 18.5 µM).

In the case of `CSCCC(NC(=O)NC(Cc1c[nH]c2ccccc12)C(=O)O)C(=O)NC(C(=O)N/C=C1\C[C@@H](O)[C@H](n2ccc(=O)[nH]c2=O)O1)C(C)N(C)C(=O)C(Cc1cccc(O)c1)NC(=O)OCc1ccccc1` (stereo not given in full), the minimum inhibitory concentration (MIC) was above 16 µg/mL.

Regarding `CCCNC(Cc1cccc(O)c1)C(=O)N(C)C(C)C(NC(=O)C(CCSC)NC(=O)NC(Cc1c[nH]c2ccccc12)C(=O)O)C(=O)N/C=C1\C[C@@H](O)[C@H](n2ccc(=O)[nH]c2=O)O1` (stereo not given in full), the MIC was above 16 µg/mL.

In the case of `CSCCC(NC(=O)NC(Cc1c[nH]c2ccccc12)C(=O)O)C(=O)NC(C(=O)N/C=C1\C[C@@H](O)[C@H](n2ccc(=O)[nH]c2=O)O1)C(C)N(C)C(=O)C(Cc1cccc(O)c1)NC(=O)c1ccccc1` (stereo not given in full), the MIC was above 16 µg/mL.

As to `CSCCC(NC(=O)NC(Cc1c[nH]c2ccccc12)C(=O)O)C(=O)NC(C(=O)N/C=C1\C[C@@H](O)[C@H](n2ccc(=O)[nH]c2=O)O1)C(C)N(C)C(=O)C(Cc1cccc(O)c1)NC(C)C` (stereo not given in full), the lowest concentration to inhibit growth (MIC) was 8 µg/mL (≈ 8.83 µM).

`CSCCC(NC(=O)NC(Cc1c[nH]c2ccccc12)C(=O)O)C(=O)NC(C(=O)N/C=C1\C[C@@H](O)[C@H](n2ccc(=O)[nH]c2=O)O1)C(C)N(C)C(=O)C(Cc1cccc(O)c1)NS(=O)(=O)c1ccc(C)cc1` (stereo not given in full) had an MIC above 16 µg/mL.

Take `CCCCCNC(Cc1cccc(O)c1)C(=O)N(C)C(C)C(NC(=O)C(CCSC)NC(=O)NC(Cc1c[nH]c2ccccc12)C(=O)O)C(=O)N/C=C1\C[C@@H](O)[C@H](n2ccc(=O)[nH]c2=O)O1` (stereo not given in full): the MIC was above 16 µg/mL.

With `CSCCC(NC(=O)NC(Cc1c[nH]c2ccccc12)C(=O)O)C(=O)NC(C(=O)N/C=C1\C[C@@H](OC(C)=O)[C@H](n2ccc(=O)[nH]c2=O)O1)C(C)N(C)C(=O)C(Cc1cccc(OC(C)=O)c1)NC(C)=O` (stereo not given in full), the MIC was above 16 µg/mL.

With `CSCCC(NC(=O)NC(Cc1c[nH]c2ccccc12)C(=O)O)C(=O)NC(C(=O)N/C=C1\C[C@@H](O)[C@H](n2ccc(=O)[nH]c2=O)O1)C(C)N(C)C(=O)C(Cc1cccc(O)c1)NS(C)(=O)=O` (stereo not given in full), the MIC is above 16 µg/mL.

`NNC(=O)c1ccncc1` [ISONIAZID] displayed an MIC of 0.05 µg/mL (≈ 0.365 µM).

`CSCCC(NC(=O)NC(Cc1c[nH]c2ccccc12)C(=O)O)C(=O)NC(C(=O)N/C=C1\C[C@@H](O)[C@H](n2ccc(=O)[nH]c2=O)O1)C(C)N(C)C(=O)C(Cc1cccc(O)c1)N(C)C` (stereo not given in full): the minimum inhibitory concentration (MIC) worked out at 16 µg/mL (≈ 17.9 µM).

`CSCCC(NC(=O)NC(Cc1c[nH]c2ccccc12)C(=O)O)C(=O)NC(C(=O)N/C=C1\C[C@@H](O)[C@H](n2ccc(=O)[nH]c2=O)O1)C(C)N(C)C(=O)C(Cc1cccc(O)c1)NS(=O)(=O)c1ccccc1` (stereo not given in full) yielded an MIC above 16 µg/mL.

On to `CCOC(=O)NC(Cc1cccc(O)c1)C(=O)N(C)C(C)C(NC(=O)C(CCSC)NC(=O)NC(Cc1c[nH]c2ccccc12)C(=O)O)C(=O)N/C=C1\C[C@@H](O)[C@H](n2ccc(=O)[nH]c2=O)O1` (stereo not given in full), for which the MIC is above 16 µg/mL.
